Assays:
Reticulitermes spp. = experiment: Field evaluation of bait matrix-NHA in underground Exterra bait stations, Past Christian, Mississippi; format: in vivo, Reticulitermes flavipes
Description: Underground Exterra bait stations (Ensystex, Fayetteville, N.C.) were placed according to manufacturer directions around 20 houses in a heavily Reticulitermes spp. infested neighborhood surrounded by mainly pine forest in Past Christian, Miss. The stations were placed, approximately 20 feet apart and 5 feet away from the outside wall of the house. Monthly inspections were conducted to determine termite activity. Once termites were found in the station, 150 g of the ARS bait matrix (see Example 2) containing 250 ppm NHA was placed in the station for the first year of the experiment. The dose was increased in the second year to 500 ppm because of the constant movement of termites from the forest area to the stations. The bait matrix-NHA was prepared as above and exposed to the termites contained in the Exterra bait station, consecutively monthly inspections were conducted and bait matrix-NHA was added as required. Data on bait consumption, temperature of the soil and time to kill the colony was recorded. Reticulitermes flavipes were very abundant in the study site. The distribution of the infestation was in patches. For the typical infested house, termites were found in 3 of 6 stations. For this type of environmental setting, 600 g of bait matrix which is equivalent to 240 mg of NHA was required to kill the colony. It took about 9 months (from September-May) for the bait matrix to show its effectiveness which was evaluated by the presence of dead termites on the surface of the bait matrix container and interceptors.

[1] = tested on: Formosan subterranean termite; experiment: Field test of NHA pressure treated aspen wood in bait stations, New Orleans; format: in vivo, Coptotermes formosanus
Source text: NHA as a wood preservative has been extensively studied (F. Green III, T. A. Kuster, L. Ferge, and T. L. Highley, 1997. Protection of southern pine from fungal decay and termite damage with N,N-Naphthaloylhydroxylamine. Inter. Biodeter. and Biodeg. 39(2-3):103-111; D. M. Crawford and F. Green III, 1999. Protection of southern pine using N,N-Naphthaloylhydroxylamine: Field tests, soft-rot cellars and aquatic bioassay leach testing. Internat. Res. Group on Wood Preserv. Doc. No: IRG/WP 99-30204). Monitoring termite activity in baiting systems is conducted by the use of wooden interceptors constructed from out of aspen, southern yellow pine, white or yellow poplar. In humid environments such as the Southeastern United States, a problem with degradations of such interceptors by fungi frequently occurs. We have noticed that low concentrations of NHA from 200 to 1000 ppm is acceptable to retard fungal growth without presenting any deleterious effect in the termites when incorporated into wooden materials. For bait efficacy, when the chemical is impregnated on pieces of wood the concentration that is retained varies as well as the efficacy. […]

[2] = date 01/29 (17th of 18, second winter)
[3] = date 02/26 (18th of 18, second winter)
[4] = typical infested house, termites in 3 of 6 stations

O=C1c2cccc3cccc(c23)C(=O)N1O [NHA, N-hydroxynaphthalimide]
time for the bait matrix to show its effectiveness (dead termites on bait container and interceptors) (Reticulitermes spp.; September-May): about 9 months
Active Stations Number (Reticulitermes spp.; date 01/29 (5th of 18)): 6
Active Stations Percentage (Reticulitermes spp.; date 01/29 (5th of 18)): 24.0%
Bait (Cum. weight in g) Consumed (Reticulitermes spp.; date 01/29 (5th of 18)): 1,500 g
Active Stations Number (Reticulitermes spp.; [2]): 11
Active Stations Percentage (Reticulitermes spp.; [2]): 24.4%
Bait (Cum. weight in g) Consumed (Reticulitermes spp.; [2]): 11,850 g
Active Stations Number (Reticulitermes spp.; date 02/26 (6th of 18)): 12
Active Stations Percentage (Reticulitermes spp.; date 02/26 (6th of 18)): 50.0%
Bait (Cum. weight in g) Consumed (Reticulitermes spp.; date 02/26 (6th of 18)): 1,500 g
Active Stations Number (Reticulitermes spp.; [3]): 15
Active Stations Percentage (Reticulitermes spp.; [3]): 33.3%
Bait (Cum. weight in g) Consumed (Reticulitermes spp.; [3]): 12,600 g
Active Stations Number (Reticulitermes spp.; date 03/27 (7th of 18)): 13
Active Stations Percentage (Reticulitermes spp.; date 03/27 (7th of 18)): 56.5%
Bait (Cum. weight in g) Consumed (Reticulitermes spp.; date 03/27 (7th of 18)): 1,500 g
Active Stations Number (Reticulitermes spp.; date 05/01 (8th of 18)): 16
Active Stations Percentage (Reticulitermes spp.; date 05/01 (8th of 18)): 55.2%
Bait (Cum. weight in g) Consumed (Reticulitermes spp.; date 05/01 (8th of 18)): 3,150 g
Active Stations Number (Reticulitermes spp.; date 05/29 (9th of 18)): 11
Active Stations Percentage (Reticulitermes spp.; date 05/29 (9th of 18)): 36.7%
Bait (Cum. weight in g) Consumed (Reticulitermes spp.; date 05/29 (9th of 18)): 3,750 g
Active Stations Number (Reticulitermes spp.; date 06/26 (10th of 18)): 16
Active Stations Percentage (Reticulitermes spp.; date 06/26 (10th of 18)): 50.0%
Bait (Cum. weight in g) Consumed (Reticulitermes spp.; date 06/26 (10th of 18)): 4,800 g
Active Stations Number (Reticulitermes spp.; date 07/31 (11th of 18)): 12
Active Stations Percentage (Reticulitermes spp.; date 07/31 (11th of 18)): 33.3%
Bait (Cum. weight in g) Consumed (Reticulitermes spp.; date 07/31 (11th of 18)): 6,000 g
Active Stations Number (Reticulitermes spp.; date 08/28 (12th of 18)): 17
Active Stations Percentage (Reticulitermes spp.; date 08/28 (12th of 18)): 47.2%
Bait (Cum. weight in g) Consumed (Reticulitermes spp.; date 08/28 (12th of 18)): 7,200 g
Active Stations Number (Reticulitermes spp.; date 09/25 (13th of 18)): 21
Active Stations Percentage (Reticulitermes spp.; date 09/25 (13th of 18)): 52.5%
Bait (Cum. weight in g) Consumed (Reticulitermes spp.; date 09/25 (13th of 18)): 7,950 g
Active Stations Number (Reticulitermes spp.; date 09/26 (1st of 18), NHA 250 ppm first year, 500 ppm second year): 22
Bait (Cum. weight in g) Consumed (Reticulitermes spp.; date 09/26 (1st of 18), from fully consumed bait bags): 0.0 g
Active Stations Percentage (Reticulitermes spp.; date 09/26 (1st of 18), of cumulative stations ever active): 95.7%
Active Stations Number (Reticulitermes spp.; date 10/27 (2nd of 18)): 10
Active Stations Percentage (Reticulitermes spp.; date 10/27 (2nd of 18)): 43.5%
Bait (Cum. weight in g) Consumed (Reticulitermes spp.; date 10/27 (2nd of 18)): 600 g
Active Stations Number (Reticulitermes spp.; date 11/02 (14th of 18)): 18
Active Stations Percentage (Reticulitermes spp.; date 11/02 (14th of 18)): 42.9%
Bait (Cum. weight in g) Consumed (Reticulitermes spp.; date 11/02 (14th of 18)): 10,800 g
Active Stations Number (Reticulitermes spp.; date 11/20 (3rd of 18)): 10
Active Stations Percentage (Reticulitermes spp.; date 11/20 (3rd of 18)): 41.7%
Bait (Cum. weight in g) Consumed (Reticulitermes spp.; date 11/20 (3rd of 18)): 1,200 g
Active Stations Number (Reticulitermes spp.; date 11/27 (15th of 18)): 13
Active Stations Percentage (Reticulitermes spp.; date 11/27 (15th of 18)): 28.9%
Bait (Cum. weight in g) Consumed (Reticulitermes spp.; date 11/27 (15th of 18)): 11,250 g
Active Stations Number (Reticulitermes spp.; date 12/18 (4th of 18)): 8
Active Stations Percentage (Reticulitermes spp.; date 12/18 (4th of 18)): 33.3%
Bait (Cum. weight in g) Consumed (Reticulitermes spp.; date 12/18 (4th of 18)): 1,500 g
Active Stations Number (Reticulitermes spp.; date 12/29 (16th of 18)): 13
Active Stations Percentage (Reticulitermes spp.; date 12/29 (16th of 18)): 28.9%
Bait (Cum. weight in g) Consumed (Reticulitermes spp.; date 12/29 (16th of 18)): 11,850 g
NHA required to kill the colony (equivalent of bait matrix) (Reticulitermes spp.; [4]): 240 mg
bait matrix required to kill the colony (Reticulitermes spp.; [4]): 600 g
optimal NHA concentration after field testing [1]: 500 ppm
